# System: MV-4-11 cells
# Experiment: Gene expression microarray analysis (Affymetrix PrimeView) and GSEA
# Format: cell-based, human
# Design: RFU PODN (11730768_x_at) / Fold change /veh PODN (11730768_x_at) / RFU LINC00158 (11744669_a_at) / Fold change /veh LINC00158 (11744669_a_at) / RFU DUSP10 (11751237_a_at) / Fold change /veh DUSP10 (11751237_a_at) / RFU ID3 (11757404_x_at) / Fold change /veh ID3 (11757404_x_at) / RFU PLEKHG5 (11737974_s_at) / Fold change /veh PLEKHG5 (11737974_s_at) / RFU LRRC4B (11730491_at) / Fold change /veh LRRC4B (11730491_at) / RFU GIMAP4 (11747438_a_at) / Fold change /veh GIMAP4 (11747438_a_at) / RFU KRT8 (11758183_x_at) / Fold change /veh KRT8 (11758183_x_at) / RFU CNN1 (11734310_a_at) / Fold change /veh CNN1 (11734310_a_at) / RFU VPS37D (11726825_at) / Fold change /veh VPS37D (11726825_at) / RFU C10orf10 (11716522_x_at) / Fold change /veh C10orf10 (11716522_x_at) / RFU KIR2DL2 /// KIR2DL4 /// KIR2DL5A /// KIR2DL5B /// KIR2DS1 /// KIR2DS2 /// KIR2DS3 /// KIR2DS4 /// KIR3DL3 /// KIR3DL3 /// KIR3DS1 (11738374_at) / Fold change /veh KIR2DL2 /// KIR2DL4 /// KIR2DL5A /// KIR2DL5B /// KIR2DS1 /// KIR2DS2 /// KIR2DS3 /// KIR2DS4 /// KIR3DL3 /// KIR3DL3 /// KIR3DS1 (11738374_at) / RFU C1QL1 (11718748_at) / Fold change /veh C1QL1 (11718748_at) / RFU TMPRSS4 (11747572_a_at) / Fold change /veh TMPRSS4 (11747572_a_at) / RFU HAMP (11756126_x_at) / Fold change /veh HAMP (11756126_x_at) / RFU RNFT2 (11725882_a_at) / Fold change /veh RNFT2 (11725882_a_at) / RFU NR4A2 (11747474_a_at) / Fold change /veh NR4A2 (11747474_a_at) / RFU ABCC12 (11746883_a_at) / Fold change /veh ABCC12 (11746883_a_at) / RFU TMEM136 (11760407_x_at) / Fold change /veh TMEM136 (11760407_x_at) / RFU CLDN22 /// WWC2 (11732394_at) / Fold change /veh CLDN22 /// WWC2 (11732394_at) / RFU HLA-DPB1 (11760878_x_at) / Fold change /veh HLA-DPB1 (11760878_x_at) / RFU SPINT1 (11716480_a_at) / Fold change /veh SPINT1 (11716480_a_at) / RFU GAP43 (11754022_s_at) / Fold change /veh GAP43 (11754022_s_at) / RFU A4GNT (11735810_at) / Fold change /veh A4GNT (11735810_at) / RFU PRB3 (11715151_x_at) / Fold change /veh PRB3 (11715151_x_at) / RFU TUBB4B (11761932_at) / Fold change /veh TUBB4B (11761932_at) / RFU CAPN14 (11732068_a_at) / Fold change /veh CAPN14 (11732068_a_at) / RFU TMCC2 (11721928_a_at) / Fold change /veh TMCC2 (11721928_a_at) / RFU IRGQ (11745062_a_at) / Fold change /veh IRGQ (11745062_a_at) / RFU FAM174B (11720279_a_at) / Fold change /veh FAM174B (11720279_a_at) / RFU TMPRSS4 (11748680_a_at) / Fold change /veh TMPRSS4 (11748680_a_at) / RFU FAM212B (11763350_a_at) / Fold change /veh FAM212B (11763350_a_at) / RFU PLEKHG5 (11743358_a_at) / Fold change /veh PLEKHG5 (11743358_a_at) / RFU ZSCAN30 (11745921_a_at) / Fold change /veh ZSCAN30 (11745921_a_at) / RFU CMKLR1 (11741424_a_at) / Fold change /veh CMKLR1 (11741424_a_at) / RFU LOC101060620 /// MAPK8IP1 (11723275_at) / Fold change /veh LOC101060620 /// MAPK8IP1 (11723275_at) / RFU SPTSSB (11747773_x_at) / Fold change /veh SPTSSB (11747773_x_at) / RFU PRSS12 (11739890_at) / Fold change /veh PRSS12 (11739890_at) / RFU BIN1 (11741810_x_at) / Fold change /veh BIN1 (11741810_x_at) / RFU WNT11 (11732464_a_at) / Fold change /veh WNT11 (11732464_a_at) / RFU C10orf10 (11716521_a_at) / Fold change /veh C10orf10 (11716521_a_at) / RFU C5orf56 (11738089_at) / Fold change /veh C5orf56 (11738089_at) / RFU CYB561 (11721691_x_at) / Fold change /veh CYB561 (11721691_x_at) / RFU ANKRD19P (11752326_a_at) / Fold change /veh ANKRD19P (11752326_a_at) / RFU OR2T12 /// OR2T33 /// OR2T8 (11738714_s_at) / Fold change /veh OR2T12 /// OR2T33 /// OR2T8 (11738714_s_at) / RFU VCAN (11748164_a_at) / Fold change /veh VCAN (11748164_a_at) / RFU JSRP1 (11732532_at) / Fold change /veh JSRP1 (11732532_at) / RFU KRTAP10-11 (11738290_x_at) / Fold change /veh KRTAP10-11 (11738290_x_at) / RFU MYO3A (11730013_a_at) / Fold change /veh MYO3A (11730013_a_at) / RFU EBF3 (11725865_a_at) / Fold change /veh EBF3 (11725865_a_at) / RFU CAMK2N1 (11719241_x_at) / Fold change /veh CAMK2N1 (11719241_x_at) / RFU C5orf56 (11738088_a_at) / Fold change /veh C5orf56 (11738088_a_at) / RFU OLFML3 (11715873_a_at) / Fold change /veh OLFML3 (11715873_a_at) / RFU LOC100653217 /// NTM (11731650_a_at) / Fold change /veh LOC100653217 /// NTM (11731650_a_at) / RFU MAPK11 (11762145_a_at) / Fold change /veh MAPK11 (11762145_a_at) / RFU FIZ1 (11724087_x_at) / Fold change /veh FIZ1 (11724087_x_at) / RFU OASL (11726364_x_at) / Fold change /veh OASL (11726364_x_at) / RFU SOX15 (11748057_x_at) / Fold change /veh SOX15 (11748057_x_at) / RFU CD79A (11719716_a_at) / Fold change /veh CD79A (11719716_a_at) / RFU HIST1H1D (11736915_at) / Fold change /veh HIST1H1D (11736915_at) / RFU CASKIN2 (11723855_a_at) / Fold change /veh CASKIN2 (11723855_a_at) / RFU LOC730098 (11760151_x_at) / Fold change /veh LOC730098 (11760151_x_at) / RFU OR4N2 (11742367_at) / Fold change /veh OR4N2 (11742367_at) / RFU PRRT2 (11749266_a_at) / Fold change /veh PRRT2 (11749266_a_at) / RFU SNX32 (11753110_a_at) / Fold change /veh SNX32 (11753110_a_at) / RFU CDHR5 (11726645_a_at) / Fold change /veh CDHR5 (11726645_a_at) / RFU RCAN1 (11760418_a_at) / Fold change /veh RCAN1 (11760418_a_at) / RFU FAM167A (11723789_a_at) / Fold change /veh FAM167A (11723789_a_at) / RFU FAM26E (11764081_at) / Fold change /veh FAM26E (11764081_at) / RFU ISYNA1 (11749810_s_at) / Fold change /veh ISYNA1 (11749810_s_at) / RFU ACY1 (11761880_at) / Fold change /veh ACY1 (11761880_at) / RFU 11764098_at / Fold change /veh 11764098_at / RFU SAMD14 (11745864_x_at) / Fold change /veh SAMD14 (11745864_x_at) / RFU NPB (11741838_a_at) / Fold change /veh NPB (11741838_a_at) / RFU TMPRSS6 (11731388_a_at) / Fold change /veh TMPRSS6 (11731388_a_at) / RFU KRTAP10-2 (11738614_at) / Fold change /veh KRTAP10-2 (11738614_at) / RFU ARHGAP8 /// PRR5-ARHGAP8 (11727945_x_at) / Fold change /veh ARHGAP8 /// PRR5-ARHGAP8 (11727945_x_at) / RFU KRTAP5-7 /// NADSYN1 (11734609_at) / Fold change /veh KRTAP5-7 /// NADSYN1 (11734609_at) / RFU RASL12 (11751679_a_at) / Fold change /veh RASL12 (11751679_a_at) / RFU CDKN2B (11736163_a_at) / Fold change /veh CDKN2B (11736163_a_at) / RFU PRF1 (11729649_at) / Fold change /veh PRF1 (11729649_at) / RFU, ZNF638 /// ZNF638-IT1 / Fold change vs veh, ZNF638 /// ZNF638-IT1 / RFU, PANK3 / Fold change vs veh, PANK3 / RFU, SH3YL1 / Fold change vs veh, SH3YL1 / RFU, ZEB2 / Fold change vs veh, ZEB2 / RFU, NRIP1 / Fold change vs veh, NRIP1 / RFU, PTTG1IP / Fold change vs veh, PTTG1IP / RFU, CAPN2 / Fold change vs veh, CAPN2 / RFU, MED14 / Fold change vs veh, MED14 / RFU, SNORA58 / Fold change vs veh, SNORA58 / RFU, C1orf63 / Fold change vs veh, C1orf63 / RFU, LRRFIP1 / Fold change vs veh, LRRFIP1 / RFU, NDUFAF7 / Fold change vs veh, NDUFAF7 / RFU, SLC12A2 / Fold change vs veh, SLC12A2 / RFU, IBTK / Fold change vs veh, IBTK / RFU, ESF1 / Fold change vs veh, ESF1 / Fold change vs veh, TMEM50B / RFU, TAOK1 / Fold change vs veh, TAOK1 / RFU, ACBD3 / Fold change vs veh, ACBD3 / RFU, TMA16 / Fold change vs veh, TMA16 / RFU, RWDD3 / Fold change vs veh, RWDD3 / RFU, BCAT1 / Fold change vs veh, BCAT1 / RFU, EDEM3 / Fold change vs veh, EDEM3 / RFU, TMEM33 / Fold change vs veh, TMEM33 / RFU, WDR75 / Fold change vs veh, WDR75 / RFU, AHCTF1 / Fold change vs veh, AHCTF1 / RFU, TFRC / Fold change vs veh, TFRC / RFU, ZDHHC17 / Fold change vs veh, ZDHHC17 / RFU, NOM1 / Fold change vs veh, NOM1 / RFU, ARL8B / Fold change vs veh, ARL8B / RFU, ZBTB11 / Fold change vs veh, ZBTB11 / RFU, TAMM41 / Fold change vs veh, TAMM41 / RFU, KIAA1704 /// LOC100996395 / Fold change vs veh, KIAA1704 /// LOC100996395 / RFU, ING1 / Fold change vs veh, ING1 / RFU, TRMT61B / Fold change vs veh, TRMT61B / RFU, FUBP3 / Fold change vs veh, FUBP3 / RFU, TP53 / Fold change vs veh, TP53 / RFU, TNKS2 / Fold change vs veh, TNKS2 / RFU, ZFP14 / Fold change vs veh, ZFP14 / RFU, ACTR2 / Fold change vs veh, ACTR2 / RFU, PPP3R1 / Fold change vs veh, PPP3R1 / RFU, PIK3R1 / Fold change vs veh, PIK3R1 / RFU, HNRNPA1 / Fold change vs veh, HNRNPA1 / RFU, RNF170 / Fold change vs veh, RNF170 / RFU, ZNF28 / Fold change vs veh, ZNF28 / RFU, RNGTT / Fold change vs veh, RNGTT / RFU, OGT / Fold change vs veh, OGT / RFU, BRD1 / Fold change vs veh, BRD1 / RFU, MARS / Fold change vs veh, MARS / RFU, ZNF655 / Fold change vs veh, ZNF655 / RFU, FAHD1 / Fold change vs veh, FAHD1 / RFU, BDP1 / Fold change vs veh, BDP1 / RFU, LRRCC1 / Fold change vs veh, LRRCC1 / RFU, ARID1A / Fold change vs veh, ARID1A / RFU, ZNF146 / Fold change vs veh, ZNF146 / RFU, ZNF330 / Fold change vs veh, ZNF330 / RFU, GPN3 / Fold change vs veh, GPN3 / RFU, C9orf123 / Fold change vs veh, C9orf123 / RFU, N4BP2L2 / Fold change vs veh, N4BP2L2 / RFU, ARFIP1 / Fold change vs veh, ARFIP1 / RFU, FAM179B / Fold change vs veh, FAM179B / RFU, BCL10 / Fold change vs veh, BCL10 / RFU, UHRF1BP1L / Fold change vs veh, UHRF1BP1L / RFU, BET1 / Fold change vs veh, BET1 / RFU, CNOT2 / Fold change vs veh, CNOT2 / RFU, ZNF268 / Fold change vs veh, ZNF268 / Fold change vs veh, ZNF507 / RFU, DGCR2 / Fold change vs veh, DGCR2 / RFU, WDSUB1 / Fold change vs veh, WDSUB1 / Fold change vs veh, HSP90B1 /// MIR3652 / RFU, ADSS / Fold change vs veh, ADSS / RFU, GK / Fold change vs veh, GK / RFU, ZNF148 / Fold change vs veh, ZNF148 / RFU, TAF9 / Fold change vs veh, TAF9 / RFU, SLC1A5 / Fold change vs veh, SLC1A5 / RFU, SLMO2 / Fold change vs veh, SLMO2 / RFU, ABCC4 / Fold change vs veh, ABCC4 / RFU, LOC101060439 /// RAP1B / Fold change vs veh, LOC101060439 /// RAP1B / RFU, RFX7 / Fold change vs veh, RFX7 / RFU, GTPBP10 / Fold change vs veh, GTPBP10 / RFU, CNEP1R1 / Fold change vs veh, CNEP1R1 / RFU, BIVM-ERCC5 /// ERCC5 / Fold change vs veh, BIVM-ERCC5 /// ERCC5 / RFU, ILF3 / Fold change vs veh, ILF3 / RFU 11762660_at / Fold change /veh 11762660_at / RFU VCAN (11757783_s_at) / Fold change /veh VCAN (11757783_s_at) / RFU DDX43 (11728927_at) / Fold change /veh DDX43 (11728927_at) / RFU KRT8 (11758188_x_at) / Fold change /veh KRT8 (11758188_x_at) / RFU NKD1 (11759106_at) / Fold change /veh NKD1 (11759106_at) / RFU SRD5A1 (11742802_a_at) / Fold change /veh SRD5A1 (11742802_a_at) / RFU TPSAB1 /// TPSB2 (11721975_s_at) / Fold change /veh TPSAB1 /// TPSB2 (11721975_s_at) / RFU GSTM3 (11746129_a_at) / Fold change /veh GSTM3 (11746129_a_at) / RFU IL23R (11737362_x_at) / Fold change /veh IL23R (11737362_x_at) / RFU TMEM51 (11727254_a_at) / Fold change /veh TMEM51 (11727254_a_at) / RFU PIWIL2 (11732686_x_at) / Fold change /veh PIWIL2 (11732686_x_at) / RFU ORM1 (11744905_x_at) / Fold change /veh ORM1 (11744905_x_at) / RFU CCDC152 (11743942_at) / Fold change /veh CCDC152 (11743942_at) / RFU ECM1 (11717891_a_at) / Fold change /veh ECM1 (11717891_a_at) / RFU IL23R (11748794_a_at) / Fold change /veh IL23R (11748794_a_at) / RFU TNFAIP8L3 (11732012_x_at) / Fold change /veh TNFAIP8L3 (11732012_x_at) / RFU MBOAT4 (11741988_at) / Fold change /veh MBOAT4 (11741988_at) / RFU 11764193_at / Fold change /veh 11764193_at / RFU TMEM53 (11763286_at) / Fold change /veh TMEM53 (11763286_at) / RFU MAGEB2 (11727129_at) / Fold change /veh MAGEB2 (11727129_at) / RFU TMEM200A (11744735_a_at) / Fold change /veh TMEM200A (11744735_a_at) / RFU CCDC152 (11751479_a_at) / Fold change /veh CCDC152 (11751479_a_at) / RFU FAM211A (11726209_a_at) / Fold change /veh FAM211A (11726209_a_at) / RFU RGS16 (11746705_a_at) / Fold change /veh RGS16 (11746705_a_at) / RFU VCAN (11755009_s_at) / Fold change /veh VCAN (11755009_s_at) / RFU RHOB (11743442_s_at) / Fold change /veh RHOB (11743442_s_at) / RFU RGS16 (11720943_a_at) / Fold change /veh RGS16 (11720943_a_at) / RFU RGS16 (11720944_at) / Fold change /veh RGS16 (11720944_at) / RFU, VPS4B / Fold change vs veh, VPS4B / RFU, CREB1 / Fold change vs veh, CREB1 / RFU, DNAJC13 / Fold change vs veh, DNAJC13 / RFU, GNAQ / Fold change vs veh, GNAQ / RFU, CDK5R1 / Fold change vs veh, CDK5R1 / RFU, ZRANB3 / Fold change vs veh, ZRANB3 / RFU, CUL4A / Fold change vs veh, CUL4A / RFU, CCNY / Fold change vs veh, CCNY / RFU, UFL1 / Fold change vs veh, UFL1 / RFU, COG3 / Fold change vs veh, COG3 / RFU, DIAPH2 / Fold change vs veh, DIAPH2 / RFU, SKA2 / Fold change vs veh, SKA2 / RFU, AFF3 / Fold change vs veh, AFF3 / RFU, LMF1 / Fold change vs veh, LMF1 / RFU, IPO11 / Fold change vs veh, IPO11 / RFU, DFFB / Fold change vs veh, DFFB / RFU, FOXP1 / Fold change vs veh, FOXP1 / RFU, CARD8 / Fold change vs veh, CARD8 / RFU, STRN3 / Fold change vs veh, STRN3 / RFU, ADK / Fold change vs veh, ADK / RFU, RASSF2 / Fold change vs veh, RASSF2 / RFU, WIPF1 / Fold change vs veh, WIPF1 / RFU, LARP1B / Fold change vs veh, LARP1B / RFU, RASA1 / Fold change vs veh, RASA1 / RFU, RB1 / Fold change vs veh, RB1 / RFU, PPFIA1 / Fold change vs veh, PPFIA1 / RFU, MAT2A / Fold change vs veh, MAT2A / RFU, CCT5 / Fold change vs veh, CCT5 / RFU, WDR92 / Fold change vs veh, WDR92 / RFU, CUX1 / Fold change vs veh, CUX1 / RFU, TTC7A / Fold change vs veh, TTC7A / RFU, TMEM135 / Fold change vs veh, TMEM135 / RFU, DEPTOR / Fold change vs veh, DEPTOR / RFU, CPM / Fold change vs veh, CPM / RFU, DNAJB6 / Fold change vs veh, DNAJB6 / RFU, CACNA2D3 / Fold change vs veh, CACNA2D3 / RFU, DTX4 / Fold change vs veh, DTX4 / RFU, TFCP2 / Fold change vs veh, TFCP2 / RFU, GMCL1 /// GMCL1P1 / Fold change vs veh, GMCL1 /// GMCL1P1 / RFU, AEBP2 / Fold change vs veh, AEBP2 / RFU, SNHG1 /// SNORD22 /// SNORD25 /// SNORD26 /// SNORD27 /// SNORD28 /// SNORD29 /// SNORD31 / Fold change vs veh, SNHG1 /// SNORD22 /// SNORD25 /// SNORD26 /// SNORD27 /// SNORD28 /// SNORD29 /// SNORD31 / Fold change (Aza/veh), C12orf56 (ProbeSet 11735607_a_at) / Fold change (ACY-1035/veh), C12orf56 (ProbeSet 11735607_a_at) / Fold change (Aza/veh), FGFR1OP (ProbeSet 11751329_s_at) / Fold change (ACY-1035/veh), FGFR1OP (ProbeSet 11751329_s_at) / Fold change (Aza/veh), VPS36 (ProbeSet 11739960_a_at) / Fold change (ACY-1035/veh), VPS36 (ProbeSet 11739960_a_at) / RFU SYPL1 (11715823_x_at) / Fold change /veh SYPL1 (11715823_x_at) / RFU IGFBP7 (11715501_s_at) / Fold change /veh IGFBP7 (11715501_s_at) / RFU REEP3 (11722064_at) / Fold change /veh REEP3 (11722064_at) / RFU IGLL1 (11728026_x_at) / Fold change /veh IGLL1 (11728026_x_at): dose or concentration left out as unconfirmed
# Settings: ProbeSet 11723944_a_at; LIST B
structure (smiles),measurement,value
Nc1ccc(-c2cccs2)cc1NC(=O)c1ccc2c(c1)cc(C1CC1)n2CCN1CCOCC1 [ACY-1035],"RFU, PTTG1IP",718.82 RFU
